Source: US20200078379A1, “DEFEROXAMINE DERIVATIVES AS MEDICAMENTS” (BIOTECHNOLOGICKY USTAV AV CR, V.V.I., priority 2017, published 2020)
Like-named read-outs stand apart in the source and are kept apart here.

Tests used:
MCF7 cells = assay: crystal violet assay, cellular viability; format: cell-based, human; conditions: for IC50: MCF7, 48 h, read-out: IC50 cellular viability; for viability at 10 µM: MCF7, 10 μM
Protocol: (§1) Compound 1 and compound 2 were tested in their efficacy to kill malignant MCF7 cancer cells. Briefly, 10.000 cells per well were seeded in a 96-well plat on one day and the next day selected compounds were added and incubated with the cells for 48 hrs. The cells were then fixed with 4% paraformaldehyde, stained with 0.05% crystal violet, washed with PBS, and solubilized in 1% SDS. The absorbance of the plate at 595 nm was then measured, quantifying the number of viable cells.
(§2) A number of compounds of the present invention were tested for cytotoxicity towards at least some of human breast cancer cell lines (MCF7, MDA-MB-231), human fibroblast (BJ) and murine triple negative breast cancer cell line 4T1 (Table 2).

[1] = system: human mammary gland cancer cell line MDA-MB-231; assay: dose-effect relationship of drugs and mixtures, crystal violet assay, Median-Effect / Combination index; format: cell-based; conditions: for IC50: Homo sapiens, Chou-Talalay method, read-out: Median-Effect Plot parameter IC50; for IC50 / Median-Effect Plot parameter m (slope): MDA-MB-231, crystal violet, 48 hours; for concentration of the cytostatic at IC75, cytostatic alone: MDA-MB-231
Protocol: (§3) The potentiation of cytotoxic effect of compound 2 in combination with several cytostatics was evaluated. The dose-effect relationship of individual drugs and mixtures of compound 2 with paclitaxel, cis Pt (cis-platin), doxorubicin and fluorouracil was determined on human mammary gland cancer cell line MDA-MB-231 and pancreatic cell line BxPC3 by means of crystal violet assay. The linearized Median-Effect Plot of dose response line provided both parameters (IC50; trend line m(slope) value) of Median-Effect Equation for individual and combination treatment [ref: Theoretical basis, experimental design, and computerized simulation of synergism and antagonism in drug combination studies; Ting-Chao Chou: Pharmacol Rev. 58(3), 2006, 621-81; Erratum in Pharmacol Rev. 2007; 59(1), 124]:
(§4) Potentiation of combination effect of compound 2 was expressed for concentrations IC50, IC75, IC90, IC95 by calculation of Combination index (CI) applying Combination Index Theorem for mutually exclusive drugs. Overall CI was expressed by means of weighted average of IC50, IC75, IC90, IC95 [ref: Quantitative analysis of dose-effect relationships: the combined effects of multiple drugs or enzyme inhibitors; Ting-Chao Chou, Paul Talalay: Advances in Enzyme Regulation, Volume 22, 1984, Pages 27-55]: […]

[2] = system: pancreatic cell line BxPC3; assay: as above; format: cell-based; conditions: for IC50: read-out: Median-Effect Plot parameter IC50
Protocol: as §3, §4

MDA-MB-231 cells = assay: crystal violet assay, cellular viability; format: cell-based, human; conditions: for mean percentage of surviving cells compared to non-treated controls: crystal violet
Protocol: as §1, §2

BT474 cells = assay: crystal violet assay, cellular viability; format: cell-based; conditions: crystal violet
non malignant cells (BJ) = assay: AnnexinV/PI cell death assay; format: cell-based; conditions: ratio Ga:compound 2 1:0, 5 μM gallium salt alone
Protocol: To confirm such findings by an independent method, cell death-inducing potency (cytotoxic efficacy) of DFO and compound 2 have been tested via annexin V/PI staining commonly used as a measure of apoptotic/necrotic cell death. Briefly, cells were seeded in 12-well plate at 100,000 per well, incubated with the selected compounds for 48 hours, then floating cells were spun, adherent cells trypsinized and spun as well followed by the staining with AnnexinV-FITC and PI probes. Cells were then washed with PBS and measured via Fluorescence Activated Sorter.
We have then analyzed the percentage of death cells by the annexinV/PI staining as described in example 7. We have observed a significant potentiation in cell death induction when gallium was combined with compound 2 (Table 14)

[3] = Homo sapiens, 48 hrs, crystal violet, read-out: mean percentage of viable cells compared to non-treated controls

CCCCCCCCCCCCCCCC(=O)ON(CCCCCNC(=O)CCC(=O)N(CCCCCNC(=O)CCC(=O)N(CCCCCN(CCCCCCCCCC[P+](c1ccccc1)(c1ccccc1)c1ccccc1)CCCCCCCCCC[P+](c1ccccc1)(c1ccccc1)c1ccccc1)OC(=O)CCCCCCCCCCCCCCC)OC(=O)CCCCCCCCCCCCCCC)C(C)=O [Compound 17, (39-acetyl-18,21,29,32,41-pentaoxo-17,28-bis(palmitoyloxy)-11-(10-(triphenylphosphonio)decyl)-40-oxa-11,17,22,28,33,39-hexaazahexapentacontyl)triphenylphosphonium trichloride]
IC50 (MCF7 cells; Homo sapiens, crystal violet): 700 nM

CC(=O)O[C@H]1C(=O)[C@@]2(C)[C@H]([C@H](OC(=O)c3ccccc3)[C@]3(O)C[C@H](OC(=O)[C@H](O)[C@@H](NC(=O)c4ccccc4)c4ccccc4)C(C)=C1C3(C)C)[C@]1(OC(C)=O)CO[C@@H]1C[C@@H]2O [paclitaxel]
IC50 [1]: 18.9 nM
concentration of the cytostatic at IC75, cytostatic alone [1]: 142 nM
Median-Effect Plot parameter m (slope) [1]: 0.5451

CC(=O)N(O)CCCCCNC(=O)CCC(=O)N(O)CCCCCNC(=O)CCC(=O)N(O)CCCCCNCCCCCCCCCC[P+](c1ccccc1)(c1ccccc1)c1ccccc1 [Compound 1, Triphenyl(3,14,25-trihydroxy-2,10,13,21,24-pentaoxo-3,9,14,20,25,31-hexaazahentetracontan-41-yl) phosphonium chloride]
IC50 (MCF7 cells; Homo sapiens, crystal violet): 2200 nM
viability at 1 µM (MCF7 cells; Homo sapiens, MCF7, 1 μM, 48 hrs, crystal violet, read-out: mean percentage of viable cells compared to non-treated controls): 83.3%
viability at 2 µM (MCF7 cells; Homo sapiens, MCF7, 2 μM, 48 hrs, crystal violet, read-out: mean percentage of viable cells compared to non-treated controls): 48.2%
viability at 5 µM (MCF7 cells; Homo sapiens, MCF7, 5 μM, 48 hrs, crystal violet, read-out: mean percentage of viable cells compared to non-treated controls): 15.2%
viability at 10 µM (MCF7 cells; [3]): 11.9%

O=c1[nH]cc(F)c(=O)[nH]1 [Fluorouracil, fluorouracil]
Median-Effect Plot parameter m (slope) ([2]; 48 hours): 0.33
IC50 ([2]; 48 hours): 48300 nM
IC50 ([2]; Homo sapiens, BXPC-3, 48 h): 48300 nM

CC(=O)N(O)CCCCCNC(=O)CCC(=O)N(O)CCCCCNC(=O)CCC(=O)N(O)CCCCCN(CCCCOCCCCCCCCCC[P+](c1ccccc1)(c1ccccc1)c1ccccc1)CCCCOCCCCCCCCCC[P+](c1ccccc1)(c1ccccc1)c1ccccc1 [Compound 15, 3-(diphenyl(3,14,25-trihydroxy-2,10,13,21,24-pentaoxo-31-(4-((10-(triphenylphosphonio)decyl)oxy)butyl)-36-oxa-3,9,14,20,25,31-hexaazahexatetracontan-31-ium-46-yl)phosphonio)benzen-1-ide trichloride]
IC50 (MCF7 cells; Homo sapiens, crystal violet): 500 nM

CC(=O)N(O)CCCCCNC(=O)CCC(=O)N(O)CCCCCNC(=O)CCC(=O)N(O)CCCCCN(CCCCCC[P+](c1ccccc1)(c1ccccc1)c1ccccc1)CCCCCC[P+](c1ccccc1)(c1ccccc1)c1ccccc1.[Cl-].[Cl-] [compound 3, Triphenyl(3,14,25-trihydroxy-2,10,13,21,24-pentaoxo-31-(6-(triphenylphosphonio)hexyl)-3,9,14,20,25,31-hexaazaheptatriacontan-37-yl)phosphonium chloride]
IC50 (MCF7 cells; Homo sapiens, crystal violet): 70400 nM
viability at 10 µM (MCF7 cells; [3]): 93.9%
mean percentage of surviving cells compared to non-treated controls (MCF7 cells; MCF7, 4 μM, crystal violet): 100.4%
mean percentage of surviving cells compared to non-treated controls (MCF7 cells; MCF7, 6 μM, crystal violet): 99.1%
mean percentage of surviving cells compared to non-treated controls (MCF7 cells; MCF7, 8 μM, crystal violet): 98.2%
mean percentage of surviving cells compared to non-treated controls (MCF7 cells; MCF7, 20 μM, crystal violet): 84.0%
mean percentage of surviving cells compared to non-treated controls (MCF7 cells; MCF7, 40 μM, crystal violet): 74.6%
mean percentage of surviving cells compared to non-treated controls (MCF7 cells; MCF7, 60 μM, crystal violet): 55.2%
mean percentage of surviving cells compared to non-treated controls (MCF7 cells; MCF7, 80 μM, crystal violet): 43.2%
mean percentage of surviving cells compared to non-treated controls (MCF7 cells; MCF7, 100 μM, crystal violet): 37.9%
IC50 (MDA-MB-231 cells; Homo sapiens, MDA-MB-231, 48 h, read-out: IC50 cellular viability): 232000 nM
mean percentage of surviving cells compared to non-treated controls (MDA-MB-231 cells; MDA-MB-231, 4 μM): 97.7%
mean percentage of surviving cells compared to non-treated controls (MDA-MB-231 cells; MDA-MB-231, 6 μM): 95.3%
mean percentage of surviving cells compared to non-treated controls (MDA-MB-231 cells; MDA-MB-231, 8 μM): 103.1%
mean percentage of surviving cells compared to non-treated controls (MDA-MB-231 cells; MDA-MB-231, 10 μM): 97.4%
mean percentage of surviving cells compared to non-treated controls (MDA-MB-231 cells; MDA-MB-231, 20 μM): 98.9%
mean percentage of surviving cells compared to non-treated controls (MDA-MB-231 cells; MDA-MB-231, 40 μM): 91.3%
mean percentage of surviving cells compared to non-treated controls (MDA-MB-231 cells; MDA-MB-231, 60 μM): 86.5%
mean percentage of surviving cells compared to non-treated controls (MDA-MB-231 cells; MDA-MB-231, 80 μM): 77.2%
mean percentage of surviving cells compared to non-treated controls (MDA-MB-231 cells; MDA-MB-231, 100 μM): 76.0%
mean percentage of surviving cells compared to non-treated controls (BT474 cells; BT474, 4 μM): 101.7%
mean percentage of surviving cells compared to non-treated controls (BT474 cells; BT474, 6 μM): 109.1%
mean percentage of surviving cells compared to non-treated controls (BT474 cells; BT474, 8 μM): 104.1%
mean percentage of surviving cells compared to non-treated controls (BT474 cells; BT474, 10 μM): 99.2%
mean percentage of surviving cells compared to non-treated controls (BT474 cells; BT474, 20 μM): 91.5%
mean percentage of surviving cells compared to non-treated controls (BT474 cells; BT474, 40 μM): 74.2%
mean percentage of surviving cells compared to non-treated controls (BT474 cells; BT474, 60 μM): 58.9%
mean percentage of surviving cells compared to non-treated controls (BT474 cells; BT474, 80 μM): 49.6%
mean percentage of surviving cells compared to non-treated controls (BT474 cells; BT474, 100 μM): 47.8%
IC50 (BT474 cells; Homo sapiens, BT-474, BT474, 48 hours, read-out: IC50 cellular viability): 83500 nM

O=[N+]([O-])[O-].O=[N+]([O-])[O-].O=[N+]([O-])[O-].[Ga+3] [Ga(NO3)2, gallium nitrate, reference compound]
percentage of death cells by annexinV/PI staining (non malignant cells (BJ)): 14.45 (5.6)

CCCCCCCC[P+](CCCCCCCC)(CCCCCCCC)CCCCCCCCCCNCCCCCN(O)C(=O)CCC(=O)NCCCCCN(O)C(=O)CCC(=O)NCCCCCN(O)C(C)=O [Compound 11, 3,14,25-trihydroxy-42,42-dioctyl-2,10,13,21,24-pentaoxo-3,9,14,20,25,31-hexaaza-42-phosphapentacontane-31,42-diium dichloride]
IC50 (MCF7 cells; Homo sapiens, crystal violet): 4000 nM

COc1cccc2c1C(=O)c1c(O)c3c(c(O)c1C2=O)C[C@@](O)(C(=O)CO)C[C@@H]3O[C@H]1C[C@H](N)[C@H](O)[C@H](C)O1 [doxorubicin]
IC50 [1]: 319 nM
concentration of the cytostatic at IC75, cytostatic alone [1]: 3578.9 nM
Median-Effect Plot parameter m (slope) [1]: 0.4543

CC(=O)ON(CCCCCNC(=O)CCC(=O)N(CCCCCNC(=O)CCC(=O)N(CCCCCN(CCCCCCCCCC[P+](c1ccccc1)(c1ccccc1)c1ccccc1)CCCCCCCCCC[P+](c1ccccc1)(c1ccccc1)c1ccccc1)OC(C)=O)OC(C)=O)C(C)=O [Compound 16, (15,26-diacetoxy-4-acetyl-2,11,14,22,25-pentaoxo-32-(10-(triphenylphosphonio)decyl)-3-oxa-4,10,15,21,26,32-hexaazadotetracontan-32-ium-42-yl)triphenylphosphonium trichloride]
IC50 (MCF7 cells; Homo sapiens): 800 nM
